Where two headings read alike, the source gives them in different places.
Legend:
Assay type in all cases: cell-based
[1] = system: A-673 cells; assay: Cell viability, crystal violet staining; settings: Homo sapiens
Outline: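 Readout is absorbance at 570 nm of crystal violet, taken up in 0.1 M sodium citrate in 50% ethanol after staining with 0.5% dye in 25% methanol. Plates held 5×10^3 cells per well, and compounds were added one day after seeding for 72 hours. Data are relative to vehicle, mean±SE.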

[2] = Splicing (IC50), Example 22; settings: spliced gene and cells not stated
Procedure: A-673 cell viability […], splicing (IC50) and brain AUC/Plasma AUC of SMSMs were determined. As shown in the tables below SMSMs had high CNS exposure.

[3] = system: FOXM1^A2 mRNA and FOXM1^BC mRNA; assay: Splicing assay (FOXM1), qPCR of isoform mRNAs
Outline: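 RT-qPCR read-out after 24 h compound exposure at 37° C., 0.2% DMSO, top dose 10 μM with 4-fold 8-point dilutions, 20,000 cells per well. Copy numbers from plasmid standard curves, PPIA-normalized, expressed as isoform ratio relative to DMSO.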

[4] = system: IKBKAP^FL mRNA; assay: IKBKAP splicing assay, qPCR; settings: 24 hours of incubation
Procedure: (§1) Various cells lines were treated with the SMSMs described herein. RNA was then isolated, cDNA synthesized, qPCR performed and the levels of IKBKAP targets of the SMSMs were determined.
(§2) On the day of the experiment, a 96-well plate was seeded with the cell lines of interest. The cells were diluted with full growth media to a concentration of 2.0×10^5 cells/mL and 100 μL of cells were added to each well (20,000 cells per well). The cells were treated with a compound immediately after plating.
(§3) The compounds were then added to the cell plate using the HP compound dispenser. In the initial experiment, a top concentration of 10 μM and an 8 point 4-fold dilution scheme was used. The stock compounds were made at a concentration of 5 mM, and the DMSO concentration was set to 0.2%. DMSO was used to normalize all the compound-containing wells and the untreated cells.
(§4) The treated cells were incubated at 37° C. in a 5% CO2 incubator for the desired amount of time. Plates were placed in a plastic bag with a wet paper towel to prevent evaporation.
(§5) RNA was isolated using the Cells to CT kit (ThermoFisher, AM1728). The cells were washed once with 100 μL cold PBS. 50 μL of lysis buffer was added to each well/tube (49.5 μL lysis buffer+0.5 μL DNase I per well/tube). The lysis reaction was mixed and incubated at room temperature for 5 minutes. 5 μL of stop solution was added directly into each cell lysis reaction and mixed by pipetting up and down 5 times. The plates/tubes were incubated at room temperature for 2 minutes then placed on ice if the cDNA synthesis was to be performed immediately. Otherwise, the plates/tubes were stored at −80° C.
(§6) cDNA synthesis reactions were then performed. 40 μL RT master mix was added to PCR tubes or plate wells. 10 μL of RNA was added to each tube/well. The RT thermal cycler program was then run and tubes or plate wells were incubated at 37° C. for 1 hour, then at 95° C. for 5 minutes to deactivate the enzyme.
(§7) The qPCR was performed using a QuantStudio 6 instrument (ThermoFisher) and the following cycling conditions and according to the tables below. All samples and standards were analyzed in triplicate. Cycle 1: 2 minutes at 50° C. Cycle 2: 10 minutes at 95° C. Cycle 3 (repeat 40 times): 15 seconds at 95° C., 1 minute at 60° C.
(§8) The determined IKBKAP^FL and […] isoform quantities were then used to determine the IKBKAP^FL: IKBKAP^Δ20 ratio at increasing SMSM compound concentrations. The PPIA quantities were used in the normalization to account of cell proliferation effects of the compounds.
(§9) An assay to measure the IKBKAP^FL mRNA and IKBKAP^Δ20 mRNA simultaneously in cell wells was performed. The RNA values were measured relative to DMSO control and also included a housekeeping gene, PPIA to ensure data was consistent. The mRNA values were measured after 24 hours of incubation with the SMSM compounds.

[5] = system: IKBKAP^Δ20 mRNA; assay: IKBKAP splicing assay, qPCR; settings: 24 hours of incubation
Procedure: as §1, §2, §3, §4, §5, §6, §7, §8, §9

[6] = A673, cell viability, read-out: A-673 IC50 (nM), Cell viability
[7] = 24 h, FoxM1 BC mRNA decrease (exon included), 0.1-1000 nM, 24 hours, read-out: Splice IC50 (nM), FoxM1 BC mRNA decrease (exon included)
[8] = FoxM1 A mRNA increase (exon excluded), 0.1-1000 nM, 24 hours, read-out: Splice EC50 (nM), FoxM1 A mRNA increase (exon excluded)
[9] = FoxM1 BC mRNA decrease (exon included), read-out: Splice IC50 (nM) FoxM1 BC mRNA decrease (exon included)
[10] = read-out: Splice EC50 (nM) FoxM1 A mRNA increase (exon excluded)
[11] = A673, cell viability, read-out: A-673 IC50 (nM) Cell viability

Compound: Cc1nnnn1-c1ccc(-c2ccc(O[C@@H]3C[C@H]4CC[C@@H](C3)N4)nn2)c(O)c1 [compound 257, 2-(6-(((1R,3s,5S)-8-azabicyclo[3.2.1]octan-3-yl)oxy)pyridazin-3-yl)-5-(5-methyl-1H-tetrazol-1-yl)phenol]
- IC50 [1, 6]: > 1000 nM
- IC50 [2]: 121 nM

Compound: Oc1cc(-n2nccn2)ccc1-c1ccc(O[C@@H]2C[C@H]3CC[C@@H](C2)N3)nn1 [compound 251, 2-(6-(((1R,3s,5S)-8-azabicyclo[3.2.1]octan-3-yl)oxy)pyridazin-3-yl)-5-(2H-1,2,3-triazol-2-yl)phenol]
- IC50 [3, 7]: 101 to 250 nM
- EC50 [3, 8]: 10 to 100 nM
- IC50 [1, 6]: 251 to 500 nM
- IC50 [2]: 150 nM

Compound: [2H]C([2H])([2H])n1ncc(-c2ccc(-c3ccc(N(C)[C@@H]4C[C@H]5CC[C@@H](C4)N5)nn3)c(O)c2)cc1=O [compound 282, 5-(4-(6-(((1R,3s,5S)-8-azabicyclo[3.2.1]octan-3-yl)(methyl)amino)pyridazin-3-yl)-3-hydroxyphenyl)-2-(methyl-d3)pyridazin-3(2H)-one]
- IC50 [3, 7]: 10 to 100 nM
- EC50 [3, 8]: < 10 nM
- IC50 [1, 6]: 10 to 100 nM
- EC50 [4]: 101 to 350 nM
- IC50 [5]: 201 to 1000 nM

Compound: CN(c1ccc(-c2cc(F)c(-c3ccn(C)c(=O)c3)cc2O)nn1)[C@H]1C[C@]2(C)CC[C@](C)(C1)N2 [compound 169, 4-(4-(6-(((1R,3s,5S)-1,5-dimethyl-8-azabicyclo[3.2.1]octan-3-yl)(methyl)amino)pyridazin-3-yl)-2-fluoro-5-hydroxyphenyl)-1-methylpyridin-2(1H)-one]
- IC50 [3, 9]: < 10 nM
- EC50 [3, 10]: > 1000 nM
- IC50 [1, 11]: < 10 nM
- IC50 ([1]; A673, read-out: A-673 cell viability (IC50)): ≤ 5 nM
- IC50 [2]: < 1 nM

Compound: CN(c1ccc(-c2ccc(-c3ccn(C)c(=O)c3)cc2O)nn1)[C@@H]1C[C@H]2CC[C@@H](C1)N2 [compound 240, 4-(4-(6-(((1R,3s,5S)-8-azabicyclo[3.2.1]octan-3-yl)(methyl)amino)pyridazin-3-yl)-3-hydroxyphenyl)-1-methylpyridin-2(1H)-one]
- IC50 [3, 7]: < 10 nM
- EC50 [3, 8]: < 10 nM
- IC50 [1, 6]: 10 to 100 nM
- EC50 [4]: 101 to 350 nM
- IC50 [5]: 201 to 1000 nM

Compound: Cc1ncc(-c2ccc(-c3ccc(N(C)[C@@H]4C[C@H]5CC[C@@H](C4)N5)nn3)c(O)c2)o1 [compound 228, 2-(6-(((1R,3s,5S)-8-azabicyclo[3.2.1]octan-3-yl)(methyl)amino)pyridazin-3-yl)-5-(2-methyloxazol-5-yl)phenol]
- IC50 [3, 7]: 10 to 100 nM
- EC50 [3, 8]: < 10 nM
- IC50 [1, 6]: 10 to 100 nM
- EC50 [4]: 351 to 1000 nM
- IC50 [5]: > 1000 nM

Compound: CN(c1ccc(-c2ccc(-n3nccn3)cc2O)nn1)[C@@H]1C[C@H]2CC[C@@H](C1)N2 [compound 223, 2-(6-(((1R,3s,5S)-8-azabicyclo[3.2.1]octan-3-yl)(methyl)amino)pyridazin-3-yl)-5-(2H-1,2,3-triazol-2-yl)phenol]
- IC50 [3, 7]: < 10 nM
- EC50 [3, 8]: < 10 nM
- IC50 ([3]; Homo sapiens, A-375, 24 h, A-375 cells, 24 hours, table does not say EC50 or IC50, read-out: FOXM1): 11 to 100 nM
- IC50 ([3]; Homo sapiens, BXPC-3, 24 h, BxPC-3 cells, 24 hours, table does not say EC50 or IC50, read-out: FOXM1): 200 to 500 nM
- IC50 ([3]; Homo sapiens, DU-145, 24 h, DU-145 cells, 24 hours, table does not say EC50 or IC50, read-out: FOXM1): 200 to 500 nM
- IC50 ([3]; Homo sapiens, Daoy, 24 h, Daoy cells, 24 hours, table does not say EC50 or IC50, read-out: FOXM1): 101 to 200 nM
- IC50 ([3]; Homo sapiens, G-401, 24 h, G-401 cells, 24 hours, table does not say EC50 or IC50, read-out: FOXM1): 11 to 100 nM
- IC50 ([3]; Homo sapiens, SH-SY5Y, 24 h, SH-SY5Y cells, 24 hours, table does not say EC50 or IC50, read-out: FOXM1): 11 to 100 nM
- IC50 ([3]; Homo sapiens, TT, 24 h, T.T cells, 24 hours, table does not say EC50 or IC50, read-out: FOXM1): 101 to 200 nM
- IC50 [1, 6]: 10 to 100 nM
- EC50 [4]: 101 to 350 nM
- IC50 [5]: > 1000 nM

Compound: C[C@]12CC[C@](C)(C[C@@H](Oc3ccc(-c4ccc(-c5cn[nH]c5)cc4O)nn3)C1)N2 [compound 152, 2-(6-(((1R,3s,5S)-1,5-dimethyl-8-azabicyclo[3.2.1]octan-3-yl)oxy)pyridazin-3-yl)-5-(1H-pyrazol-4-yl)phenol]
- IC50 [3, 9]: 10 to 100 nM
- EC50 [3, 10]: 10 to 100 nM
- IC50 [1, 11]: 101 to 250 nM
- EC50 [4]: 351 to 1000 nM
- IC50 [5]: > 1000 nM

Compound: Oc1cc(-n2ccnc2)ccc1-c1ccc(O[C@@H]2C[C@H]3CC[C@@H](C2)N3)nn1 [compound 245, 2-(6-(((1R,3s,5S)-8-azabicyclo[3.2.1]octan-3-yl)oxy)pyridazin-3-yl)-5-(1H-imidazol-1-yl)phenol]
- IC50 [3, 7]: 101 to 250 nM
- EC50 [3, 8]: 10 to 100 nM
- IC50 [1, 6]: 501 to 1000 nM
- IC50 [2]: 30 nM
